This is an account of results in ChEMBL document CHEMBL1909046, “DrugMatrix in vitro pharmacology data”.

One test addresses T1, Calcitonin receptor (Homo sapiens, UniProt P30988).
T1 sequence (P30988 whole entry): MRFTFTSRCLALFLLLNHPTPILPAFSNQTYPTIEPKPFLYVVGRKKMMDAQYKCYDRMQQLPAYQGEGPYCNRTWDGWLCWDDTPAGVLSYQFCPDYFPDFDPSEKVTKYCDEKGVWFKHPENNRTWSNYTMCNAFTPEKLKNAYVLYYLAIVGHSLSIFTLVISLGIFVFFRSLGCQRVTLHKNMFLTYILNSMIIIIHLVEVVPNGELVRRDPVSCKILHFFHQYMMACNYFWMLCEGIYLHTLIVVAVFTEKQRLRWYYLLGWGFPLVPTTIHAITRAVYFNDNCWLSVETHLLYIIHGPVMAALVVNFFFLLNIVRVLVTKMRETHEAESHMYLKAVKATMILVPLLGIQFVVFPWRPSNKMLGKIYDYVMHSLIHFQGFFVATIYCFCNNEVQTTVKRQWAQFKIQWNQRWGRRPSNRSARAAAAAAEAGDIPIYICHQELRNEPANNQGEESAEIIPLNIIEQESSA
The format is cell membranes, Membrane. The following applies: t47d.

A further test addresses T2, Substance-K receptor (Homo sapiens, UniProt P21452).
T2 sequence (P21452 whole entry): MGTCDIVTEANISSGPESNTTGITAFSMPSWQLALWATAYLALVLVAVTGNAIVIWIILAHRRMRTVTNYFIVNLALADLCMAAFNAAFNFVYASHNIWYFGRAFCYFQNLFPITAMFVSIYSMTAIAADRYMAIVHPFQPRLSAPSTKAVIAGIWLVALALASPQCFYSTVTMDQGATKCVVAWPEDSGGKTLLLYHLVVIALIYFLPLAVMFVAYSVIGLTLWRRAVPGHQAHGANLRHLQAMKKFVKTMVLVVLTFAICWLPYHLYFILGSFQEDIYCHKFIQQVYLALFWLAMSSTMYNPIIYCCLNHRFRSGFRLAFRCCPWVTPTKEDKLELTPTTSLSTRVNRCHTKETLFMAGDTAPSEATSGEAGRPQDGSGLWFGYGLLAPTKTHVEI
The format is cell membranes, CHO, Membrane. The following applies: cho.

Test [1] is described as follows: DRUGMATRIX: GABAA, Muscimol, Central radioligand binding (ligand: [3H] Muscimol). It is filed as cell membranes, Rattus norvegicus, Wistar, Brain, Membrane. The following applies: Not Active = under 50% inhibition at 10 µM.
Test [2] can be described thus: DRUGMATRIX: Glutamate, AMPA radioligand binding (ligand: [3H] AMPA). It is filed as cell membranes, Rattus norvegicus, Wistar, Cerebral cortex, Membrane. To be noted: Not Active = under 50% inhibition at 10 µM.
The target of another test is Histamine H2 receptor (Homo sapiens, UniProt P25021). The format is cell membranes, CHO-K1, Membrane. Also: in other assays of this panel Not Active means under 50% inhibition at 10 µM.
Chain of Histamine H2 receptor (P25021 whole entry): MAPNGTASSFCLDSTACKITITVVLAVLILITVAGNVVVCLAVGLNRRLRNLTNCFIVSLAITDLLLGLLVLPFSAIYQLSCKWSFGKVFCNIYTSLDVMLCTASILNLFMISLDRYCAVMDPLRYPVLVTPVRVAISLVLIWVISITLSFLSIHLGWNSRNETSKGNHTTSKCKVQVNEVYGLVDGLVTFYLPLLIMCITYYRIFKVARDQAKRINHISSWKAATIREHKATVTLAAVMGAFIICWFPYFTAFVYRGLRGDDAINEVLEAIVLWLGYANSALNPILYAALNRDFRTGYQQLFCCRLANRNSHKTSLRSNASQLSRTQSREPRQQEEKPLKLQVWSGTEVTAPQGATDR
The nature of test [3]: DRUGMATRIX: Imidazoline I2, Central radioligand binding (ligand: [3H] Idazoxan). It is filed as cell membranes, Rattus norvegicus, Wistar, Cerebral cortex, Membrane. The following applies: Not Active = under 50% inhibition at 10 µM.
The target in the next test is Melanocortin receptor 4 (Homo sapiens, UniProt P32245). The format is cell membranes, Membrane. To be noted: hek293. Also: in other assays of this panel Not Active means under 50% inhibition at 10 µM.
Chain of Melanocortin receptor 4 (P32245 whole entry): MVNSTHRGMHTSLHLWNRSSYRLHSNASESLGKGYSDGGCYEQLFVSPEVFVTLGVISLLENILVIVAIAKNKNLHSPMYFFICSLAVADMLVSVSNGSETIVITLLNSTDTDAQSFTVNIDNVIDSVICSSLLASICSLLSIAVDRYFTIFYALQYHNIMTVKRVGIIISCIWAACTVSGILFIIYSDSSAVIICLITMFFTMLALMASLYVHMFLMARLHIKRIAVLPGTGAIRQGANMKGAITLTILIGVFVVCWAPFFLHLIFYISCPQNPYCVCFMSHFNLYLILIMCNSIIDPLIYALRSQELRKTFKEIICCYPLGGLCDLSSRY

By IC50 is commonly meant the concentration that inhibits the measured activity by half. One may read the Ki as a dissociation constant, usually derived from enzyme kinetics or from competition with a known ligand. `C#C[C@]1(O)CC[C@H]2[C@@H]3CCC4=CC(=O)CC[C@@H]4[C@H]3CC[C@@]21C` [NORETHINDRONE]: the half-inhibitory concentration (IC50) result (at Calcitonin receptor; at Substance-K receptor; in test [1]; in test [2]; against Histamine H2 receptor (cho-k1); in test [3]) was “Not Active” throughout. Besides, the IC50 result against Melanocortin receptor 4 is on record as “Not Active”. The Ki entry in test [1], in test [2] and in test [3] was “Not Active” in each case.

As to `O=C(O)CCc1nc(-c2ccccc2)c(-c2ccccc2)o1` [OXAPROZIN], the IC50 result (at Calcitonin receptor; against Substance-K receptor; in test [1]; in test [2]; against Histamine H2 receptor (cho-k1); in test [3]) was “Not Active” each time. Also, the IC50 entry against Melanocortin receptor 4 is reported as “Not Active”. Further, the Ki entry in test [1], in test [2] and in test [3] was “Not Active” in each case.

`Cc1cc(C(C)(C)C)c(O)c(C)c1CC1=NCCN1` [OXYMETAZOLINE]: the half-maximal inhibitory concentration (IC50) result at Calcitonin receptor is “Not Active”; against Substance-K receptor it was “Not Active”; in test [1] it was “Not Active”; in test [2] it was “Not Active”; on Histamine H2 receptor (cho-k1), “Not Active”; in test [3] (read-out: IC50), 27 nM. In addition, the IC50 result on Melanocortin receptor 4 is reported as “Not Active”. Moreover, the Ki entry in test [1] is “Not Active”; in test [2] it was “Not Active”; in test [3] (read-out: Ki), 18 nM.

As for `NC(=O)NC(=O)Cc1ccccc1` [PHENACEMIDE], the concentration for half-maximal inhibition (IC50) entry (on Calcitonin receptor; against Substance-K receptor; in test [1]; in test [2]; against Histamine H2 receptor (cho-k1); in test [3]) was “Not Active” throughout. Besides, the IC50 entry against Melanocortin receptor 4 was “Not Active”. In addition, the Ki result in test [1], in test [2] and in test [3] was “Not Active” in each case.

With `O=C1c2ccccc2C(=O)C1c1ccccc1` [PHENINDIONE], the IC50 result (on Calcitonin receptor; on Substance-K receptor; in test [1]; in test [2]; on Histamine H2 receptor (cho-k1); in test [3]) was “Not Active” each time. In addition, the IC50 entry on Melanocortin receptor 4 is “Not Active”. The Ki entry in test [1], in test [2] and in test [3] was “Not Active” in each case.

Regarding `CCC1(c2ccccc2)C(=O)NC(=O)NC1=O` [PHENOBARBITAL], the IC50 result (on Calcitonin receptor; against Substance-K receptor; in test [1]; in test [2]; against Histamine H2 receptor (cho-k1); in test [3]) was “Not Active” in each case. Besides, on Melanocortin receptor 4, the IC50 entry is “Not Active”. The Ki result in test [1], in test [2] and in test [3] was “Not Active” throughout.

For the compound `Oc1ccccc1` [PHENOL], the IC50 result (at Calcitonin receptor; against Substance-K receptor; in test [1]; in test [2]; against Histamine H2 receptor (cho-k1); in test [3]) was “Not Active” throughout. For the same compound, the IC50 result against Melanocortin receptor 4 was “Not Active”. Also, the Ki result in test [1], in test [2] and in test [3] was “Not Active” throughout.

For the compound `c1ccc2c(c1)Nc1ccccc1S2` [PHENOTHIAZINE], the half-maximal inhibitory concentration (IC50) result (on Calcitonin receptor; at Substance-K receptor; in test [1]; in test [2]; against Histamine H2 receptor (cho-k1); in test [3]) was “Not Active” in each case. Besides, the half-inhibitory concentration (IC50) entry against Melanocortin receptor 4 is on record as “Not Active”. For the same compound, the Ki result in test [1], in test [2] and in test [3] was “Not Active” each time.

Take `CCN1CCN(C(=O)N[C@@H](C(=O)N[C@@H]2C(=O)N3[C@@H]2SC(C)(C)[C@@H]3C(=O)O)c2ccccc2)C(=O)C1=O` [PIPERACILLIN]: the IC50 entry (on Calcitonin receptor; against Substance-K receptor; in test [1]; in test [2]; against Histamine H2 receptor (cho-k1); in test [3]) was “Not Active” each time. For the same compound, on Melanocortin receptor 4, the half-inhibitory concentration (IC50) entry was “Not Active”. The Ki entry in test [1], in test [2] and in test [3] was “Not Active” each time.

In the case of `COc1cc([C@@H]2c3cc4c(cc3[C@H](O)[C@H]3COC(=O)[C@H]23)OCO4)cc(OC)c1OC` [PODOFILOX], the IC50 entry (at Calcitonin receptor; on Substance-K receptor; in test [1]; in test [2]; against Histamine H2 receptor (cho-k1); in test [3]) was “Not Active” in each case. Also, the IC50 entry against Melanocortin receptor 4 is reported as “Not Active”. Besides, the Ki result in test [1], in test [2] and in test [3] was “Not Active” throughout.

As to `COc1cc(NC(C)CCCN)c2ncccc2c1` (configuration not stated) [PRIMAQUINE], the IC50 result (at Calcitonin receptor; against Substance-K receptor; in test [1]; in test [2]; against Histamine H2 receptor (cho-k1); in test [3]) was “Not Active” throughout. In addition, on Melanocortin receptor 4, the half-inhibitory concentration (IC50) entry was “Not Active”. The Ki result in test [1], in test [2] and in test [3] was “Not Active” each time.

Take `CC(CN1c2ccccc2Sc2ccccc21)N(C)C` (configuration not stated) [PROMETHAZINE]: the half-inhibitory concentration (IC50) result was “Not Active” on Calcitonin receptor; “Not Active” against Substance-K receptor; “Not Active” in test [1]; “Not Active” in test [2]; 1160 nM on Histamine H2 receptor (read-out: IC50); 1990 nM in test [3] (read-out: IC50). Besides, the IC50 entry against Melanocortin receptor 4 is given as “Not Active”. Further, the Ki result was “Not Active” in test [1], “Not Active” in test [2], 1150 nM on Histamine H2 receptor (read-out: Ki) and 1330 nM in test [3] (read-out: Ki).

Regarding `COc1ccc(C[C@H](N)C(=O)N[C@H]2[C@@H](O)[C@H](n3cnc4c(N(C)C)ncnc43)O[C@@H]2CO)cc1` [PUROMYCIN], the IC50 result (on Calcitonin receptor; at Substance-K receptor; in test [1]; in test [2]; at Histamine H2 receptor (cho-k1); in test [3]) was “Not Active” throughout. For the same compound, on Melanocortin receptor 4, the IC50 result is given as “Not Active”. For the same compound, the Ki entry in test [1], in test [2] and in test [3] was “Not Active” each time.

With CARBOXYMETHYLCELLULOSE, the IC50 entry (on Calcitonin receptor; on Substance-K receptor; in test [1]; in test [2]; against Histamine H2 receptor (cho-k1); in test [3]) was “Not Active” in each case. The IC50 result on Melanocortin receptor 4 was “Not Active”. Besides, the Ki result (on Calcitonin receptor; on Substance-K receptor; in test [1]; in test [2]; at Histamine H2 receptor (cho-k1); in test [3]) was “Not Active” throughout. The Ki entry at Melanocortin receptor 4 is recorded as “Not Active”.

In the case of CHROMIC CHLORIDE, the IC50 result (at Calcitonin receptor; on Substance-K receptor; in test [1]; in test [2]; against Histamine H2 receptor (cho-k1); in test [3]) was “Not Active” each time. Also, on Melanocortin receptor 4, the IC50 result is “Not Active”. Besides, the Ki entry (on Calcitonin receptor; on Substance-K receptor; in test [1]; in test [2]; on Histamine H2 receptor (cho-k1); in test [3]) was “Not Active” each time. Further, the Ki result on Melanocortin receptor 4 is listed as “Not Active”.

With COPPER(II) OXIDE, the IC50 result (at Calcitonin receptor; at Substance-K receptor; in test [1]; in test [2]; at Histamine H2 receptor (cho-k1); in test [3]) was “Not Active” throughout. For the same compound, the IC50 entry against Melanocortin receptor 4 is “Not Active”. In addition, the Ki entry (at Calcitonin receptor; at Substance-K receptor; in test [1]; in test [2]; on Histamine H2 receptor (cho-k1); in test [3]) was “Not Active” each time. Also, the Ki result on Melanocortin receptor 4 is recorded as “Not Active”.

In the case of POVIDONE, the 50% inhibitory concentration (IC50) result (at Calcitonin receptor; at Substance-K receptor; in test [1]; in test [2]; on Histamine H2 receptor (cho-k1); in test [3]) was “Not Active” each time. At Melanocortin receptor 4, the IC50 result is reported as “Not Active”. Besides, the Ki result (at Calcitonin receptor; on Substance-K receptor; in test [1]; in test [2]; on Histamine H2 receptor (cho-k1); in test [3]) was “Not Active” throughout. On Melanocortin receptor 4, the inhibitory constant (Ki) entry was “Not Active”.
